Measurements: the METLIN SMRT retention time set (Domingo-Almenara et al. 2019)

Assay: gradient 5% acetonitrile 3 min, to 50% in 2 min, to 85% in 15 min, held 3 min, 100 µL/min
Conditions: column: Zorbax Extend-C18 2.1 x 50 mm; eluents: water / acetonitrile, 0.1% formic acid
How it was run: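 A Zorbax Extend-C18 column (2.1 × 50 mm, 1.8 μm) run at 100 μL/min with water and acetonitrile, both containing 0.1% formic acid, separated mixtures of ~100 pure standards. The HPLC was coupled to a quadrupole time-of-flight mass spectrometer operated in positive and negative ionization mode, with dead and dwell volumes of 40 μL and 900 μL. Each retention time was taken from a computationally picked adduct peak that was then manually inspected.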

Row | SMILES | RP-LC retention time [s]
1 | O=C(CSc1nnc2c3sc(N4CCCC4)nc3ncn12)Nc1ccc(F)cc1 | 794
2 | CCCN(CC1CCOC1)C(=O)Nc1ccccc1OC (centres undefined) | 821
3 | COc1cccc(-n2nnc(-c3nsc(Nc4ccc(OC)c(Cl)c4)n3)c2C)c1 | 1020
4 | N#Cc1ccc(CN2CCC3(CCC3O)CC2)cc1 (centres undefined) | 570
5 | Cc1cc(Cl)ccc1NS(=O)(=O)c1ccc2onc(C(=O)N3CCCC3)c2c1 | 1030
6 | O=C(CN1CCN(c2ncccn2)CC1)N1c2ccccc2Sc2ccccc21 | 602
7 | COc1ccc(CNC(=O)C2CCCN(c3nccnc3Sc3ccccc3)C2)cc1OC (centres undefined) | 1120
8 | O=C(Nc1ccc(N2CCN(C3CCCCC3)C2=O)nc1)c1ccccc1F | 850
9 | Clc1ccc(Cl)c(-c2ccc(CNCCCn3ccnc3)o2)c1 | 589
10 | Cn1cccc1C(=O)N1C[C@@H]2C[C@H]1C[C@@H]2NC(=O)c1cccs1 | 700
11 | CCc1nc2cc(-c3noc(-c4n[nH]c5ccccc45)n3)ccc2o1 | 645
12 | CCc1c(C(=O)OC)ncc2[nH]c3cc(OC)c(OC)cc3c12 | 702
13 | CCOc1ccc(N2CC(c3nc(-c4ccc(Cl)cc4)no3)CC2=O)cc1 (centres undefined) | 1080
14 | Cc1cc(C)cc(-c2nnc(Cc3nc(-c4ccccc4F)no3)o2)c1 | 1080
15 | O=C(C1CCCO1)N1CCC(c2cnn(-c3cccc(F)c3)c2)CC1 (centres undefined) | 792
16 | CCn1cc(S(=O)(=O)N2CC(c3nc(CCOCc4ccccc4)no3)C2)cn1 | 856
17 | COc1ccc(-n2cc(C(=O)Oc3cccnc3)c3ccccc3c2=O)cc1 | 911
18 | Cc1ccc(-c2nnc3ccc(SCC(=O)OCc4ccccc4)nn23)cc1 | 840
19 | O=C(C1CCN(c2cnc3nccnc3c2)CC1)N1CCN(C2CCCCC2)CC1 | 572
20 | Cc1ccc(NC(=O)N2C[C@@H](F)C[C@H]2C(=O)N2CCc3ccccc3C2)c(Cl)c1 | 831

Row | SMILES | RP-LC retention time [s]
21 | Cc1nc2c(sc3nc(-c4ccccc4)ccc32)c(=O)n1CC(=O)Nc1ccc(F)cc1Cl | 1090
22 | CS(=O)(=O)N1CCC(CNC(=O)CSCc2ccccc2)CC1 | 691
23 | CCOC(=O)c1c(N)n(-c2ccccc2OC)c2nc3ccccc3nc12 | 691
24 | CN(C(=O)Cc1ccsc1)C1CCc2nn(C)c(=O)n2CC1 (centres undefined) | 600
25 | CCOCCCNC(=O)c1c(N2CCCC2=O)c2cc(C)ccc2n1C | 782
26 | CCCOC(=O)C1=C(C)NC2=C(C(=O)C(C(=O)OC)C(C)C2)C1c1ccc(OC)cc1 (centres undefined) | 907
27 | O=c1c2ccccc2ncn1Cc1noc(Cc2ccc(Br)cc2)n1 | 871
28 | CCc1nn(C)c(=O)c2cc(S(=O)(=O)NCc3ccccc3Cl)cn12 | 893
29 | O=C(Nc1cnn(-c2ncc(N3CCCC3)cn2)c1)c1ccc(C(F)(F)F)cc1 | 941
30 | CCN(CCNS(=O)(=O)c1ccc2c(c1)CCCC(=O)N2)Cc1ccccc1 | 608
31 | CCn1ccc(C(=O)Nc2ccccc2C#N)n1 | 744
32 | Cc1csc(-c2ccc(N3CCN(C(=O)c4ccc(F)cc4)CC3)nc2)n1 | 820
33 | O=C(NC1CC1)c1nc(C(=O)N2CCN(C3CCCCC3)CC2)cs1 | 601
34 | CCCC(=O)N1CCCn2nc(-c3cccnc3)cc2C1 | 577
35 | CC1(C)CC(=O)c2cn(-c3ccc(Cl)cc3)c(=O)c(C(=O)N3CCCC3)c2C1 | 786
36 | COC(=O)c1ccccc1S(=O)(=O)Nc1cccn2c(C3CCC3)nnc12 | 772
37 | O=C1CC(/C=C/c2ccccc2)Cc2nc(N3CCN(c4ccccn4)CC3)ncc21 (centres undefined) | 754
38 | O=C(NCc1cccs1)C1CCCN(C(=O)c2cc(-c3ccncc3)n[nH]2)C1 (centres undefined) | 574
39 | c1ccc(-c2noc(-c3cccnc3N3CCN(c4ccccc4)CC3)n2)cc1 | 1280
40 | CS(=O)(=O)c1ccc(NC(=O)Cn2cnc3c(sc4nc(-c5ccccc5)ccc43)c2=O)cc1 | 862

Row | SMILES | RP-LC retention time [s]
41 | Cc1ncc2c(n1)CCN(C(=O)c1c(F)cccc1Cl)C2 | 663
42 | CCc1nnc2nc(N3CCN(C(=O)c4ccc(Cl)s4)CC3)cc(C)n12 | 638
43 | CC(C)CN1CCn2cc(C(=O)N3CCN(c4ccccn4)CC3)nc2C1 | 526
44 | Cc1cc(NC(=O)N2CCC(CN3CCCC(C)C3)CC2)ccc1Br (centres undefined) | 682
45 | O=C(NC1CC1)[C@@H]1C[C@H](Oc2ccccc2)CN1C(=O)COc1ccc(F)cc1 | 813
46 | COc1ccc(NS(=O)(=O)c2ccc(-c3nnc(C4CCC4)o3)o2)cc1F | 868
47 | CCn1cc(C2=CCN(C(=O)Cc3ccc(F)cc3)CC2)c2cccnc21 | 876
48 | COc1cccc(N2CCN(c3ccnc(SCC(=O)Nc4ccc5c(c4)OCO5)n3)CC2)c1 | 728
49 | CC1CCN(C(=O)c2cn(-c3cc(-c4nc(C(C)C)no4)ccn3)cn2)CC1 | 640
50 | CC1=C(C(=O)NCCCN2CCN(Cc3ccccc3)CC2)C2(CCCCC2)OC1=O | 627
51 | COC(=O)c1c(NCc2cccc(OC)c2)c2cccc(Cl)c2[nH]c1=O | 803
52 | CCc1nc2c(NC(=O)c3ccccc3Br)cccn2n1 | 773
53 | CCc1noc(NC(C)=O)c1-c1ccc(C)c(S(=O)(=O)Nc2cccc(C(F)(F)F)c2)c1 | 889
54 | Fc1ccc(-n2cc(-c3noc(-c4ccccc4)n3)nn2)cc1 | 1040
55 | CC(C(=O)N1CCN(c2ccccn2)CC1)n1ccc2cc(S(=O)(=O)N3CCCC3)ccc21 (centres undefined) | 660
56 | COc1ccc(-c2nc(C)c(C(=O)O)s2)cc1OC | 730
57 | Cc1ncc([N+](=O)[O-])n1CCOC(N)=O | 624
58 | O=C(Nc1ccc(OCC(=O)N2CCN(c3ccccn3)CC2)nc1)C1CC1 | 580
59 | COc1ccc(N2CCN(C(=O)C3CCCN(c4ccncc4)C3)CC2)cc1 (centres undefined) | 593
60 | CCOc1cccc(-c2noc(Cn3ccnc3C)n2)c1 | 647

Other lines, results leading:

Row | RP-LC retention time [s] | SMILES
61 | 692 | CSc1ccc(CNC(=O)CCc2c(-c3ccc(F)cc3)nc3ccccn23)cc1
62 | 958 | O=C1CC(c2noc(-c3cccc(F)c3)n2)CN1c1ccccc1 (centres undefined)
63 | 560 | O=C(NCc1cccnc1)c1cccn1-c1nnc(N2CCOCC2)s1
64 | 812 | O=C(NCCc1csc(-c2ccccc2)n1)[C@H]1CCCN1C(=O)c1ccc(F)cc1
65 | 630 | Cc1[nH]c(C)c(S(=O)(=O)N2CCC(C(=O)NC3CC3)CC2)c1C(=O)N1CCCCC1
66 | 622 | Cn1nc(C(=O)Nc2ccc(CC(=O)NCC(F)(F)F)cc2)ccc1=O
67 | 873 | Cc1cc2c(c(=O)n(-c3ccccc3)c(=O)n2CC(=O)Nc2ccc(Cl)cc2F)n1C
68 | 911 | CCOC(=O)CNC(=O)N1CCCCCC1c1ccccc1Cl (centres undefined)
69 | 564 | CCCCS(=O)(=O)NCC#CCN1CCc2ccccc2C1
70 | 772 | COC(=O)[C@H](Cc1ccc(C#Cc2ccccc2)cc1)NC(=O)C[C@H]1CCCN(C(=N)N)C1
71 | 832 | COC(=O)c1ccc(C(=O)N(Cc2ccsc2)Cc2ccco2)cc1
72 | 705 | COc1ccc(C2Cn3cnc(C(=O)N4CCC(C(=O)NC5CCCC5)CC4)c3CO2)cc1 (centres undefined)
73 | 743 | COc1ccc(-c2nc(NC(C)C)c3ccccc3n2)cc1
74 | 609 | O=C(c1ccsc1)N1CC(n2cc(C(=O)N3CCOCC3)nn2)C1
75 | 586 | Cc1cc(=O)n(CC(=O)Nc2ccc(F)cc2C)c(N)n1
76 | 538 | CC(=O)N1C[C@@H]2CCCN3CCC[C@@H]([C@H]23)[C@H]1CCCC(=O)NCCN(C)C1CCCCC1
77 | 575 | CC(=O)N1C[C@@H]2CCCN3CCC[C@@H]([C@H]23)[C@H]1CCCC(=O)NCCCc1c(C)noc1C
78 | 669 | CCC(C)NC(=O)C1CCN(S(=O)(=O)c2cn(C(C)C)cn2)CC1 (centres undefined)
79 | 689 | Clc1ccc(-c2ccc(CNCc3ccccn3)o2)cc1
80 | 556 | CN(C)C1(CC2CC2)CCN(C(=O)c2ccoc2)CC1
81 | 807 | COc1cc(Cl)ccc1C(=O)NC1CCN(c2cc(-c3ccc(F)cc3)[nH]n2)C1 (centres undefined)
82 | 1000 | Cc1cc2nc(C(=O)Nc3ccccc3F)cc(C)n2n1
83 | 763 | CC1(C)CC(=O)c2cn(-c3ccc(Cl)cc3)c(=O)c(C(=O)Nc3cccnc3)c2C1
84 | 1040 | CCCn1c(=O)sc2cc(S(=O)(=O)N3CCC(C(=O)Nc4ccc(Cl)cc4)CC3)ccc21
85 | 719 | COc1cc(NC(=O)C(C)Oc2ccc(=O)n(-c3ccc(F)cc3)n2)cc(OC)c1OC (centres undefined)
86 | 1000 | CCOc1ccc(C(=O)N2CCN(c3ccc(=O)n(-c4ccc(C(C)C)cc4)n3)CC2)cc1
87 | 639 | O=C(NC1CCNCC1)c1[nH]ncc1NC(=O)c1c(Cl)cccc1Cl
88 | 894 | CCc1noc(NC(C)=O)c1-c1ccc(OC)c(S(=O)(=O)Nc2ccc(C)cc2Cl)c1
89 | 834 | CCc1ccc(NC(=O)C2CCN(S(=O)(=O)c3ccc4c(c3)CCCC(=O)N4)CC2)cc1
